Reference: patent US8129355B2, “Ketone ligands for modulating the expression of exogenous genes via an ecdysone receptor complex” (priority 2002, dated 2012)

Columns and labels:
[1] = target: T1, Bombyx mori EcR (VP16 fusion, switch construct CVBE) with 6XEcRE LacZ reporter (Bombyx mori, UniProt P49881); experiment: Z3 assay: β-galactosidase (LacZ) reporter gene fold induction in stably transformed human 293 kidney cells (clone Z3); format: cell-based; conditions: single dose 33 μM; ligand treated / DMSO treated cells
T1 construct: expressed in transfected cells; host or cells: Human 293 kidney (HEK-293) cells, retrovirally infected, clone Z3
T1 sequence (P49881 86-606 limits assumed): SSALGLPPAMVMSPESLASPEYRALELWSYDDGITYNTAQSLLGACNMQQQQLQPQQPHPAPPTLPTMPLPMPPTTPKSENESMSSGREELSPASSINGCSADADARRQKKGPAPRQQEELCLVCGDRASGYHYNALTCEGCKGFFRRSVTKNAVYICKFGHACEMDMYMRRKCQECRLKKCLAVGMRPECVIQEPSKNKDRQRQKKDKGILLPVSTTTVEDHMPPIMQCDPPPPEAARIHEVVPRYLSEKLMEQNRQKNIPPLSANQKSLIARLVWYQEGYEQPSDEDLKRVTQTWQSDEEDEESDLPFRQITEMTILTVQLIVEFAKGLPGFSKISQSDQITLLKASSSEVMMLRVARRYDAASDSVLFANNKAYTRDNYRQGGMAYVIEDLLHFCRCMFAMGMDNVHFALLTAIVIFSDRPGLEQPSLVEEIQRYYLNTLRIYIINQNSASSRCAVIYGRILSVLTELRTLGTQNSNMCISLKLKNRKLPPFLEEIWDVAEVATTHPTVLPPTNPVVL
T1 sequence (P19793 1-462 partner): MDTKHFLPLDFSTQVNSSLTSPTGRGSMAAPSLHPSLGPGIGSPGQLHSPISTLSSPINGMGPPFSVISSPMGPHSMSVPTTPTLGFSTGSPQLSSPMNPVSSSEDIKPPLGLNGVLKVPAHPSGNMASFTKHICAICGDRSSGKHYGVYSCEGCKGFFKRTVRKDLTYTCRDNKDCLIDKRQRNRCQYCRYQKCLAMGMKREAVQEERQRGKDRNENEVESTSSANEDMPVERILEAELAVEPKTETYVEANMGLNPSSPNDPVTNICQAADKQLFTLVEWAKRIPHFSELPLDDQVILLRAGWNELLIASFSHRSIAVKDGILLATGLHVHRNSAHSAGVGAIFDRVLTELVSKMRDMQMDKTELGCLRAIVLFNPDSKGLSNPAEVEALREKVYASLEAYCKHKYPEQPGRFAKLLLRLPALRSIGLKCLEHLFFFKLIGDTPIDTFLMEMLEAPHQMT
Description: Dr. F. Gage provided a population of stably transformed cells containing CVBE and 6XEcRE as described in Suhr, S. T., Gil, E. B., Senut M. C., Gage, F. H. (1998) Proc. Natl. Acad. Sci. USA 95, 7999-804. Human 293 kidney cells, also referred to as HEK-293 cells, were sequentially infected with retroviral vectors encoding first the switch construct CVBE, and subsequently the reporter construct 6XEcRE Lac Z. The switch construct contained the coding sequence for amino acids 26-546 from Bombyx mori EcR (BE) (Iatrou) inserted in frame and downstream of the VP16 transactivation domain (VBE). A synthetic ATG start codon was placed under the control of cytomegalovirus (CVBE) immediate early promoter and flanked by long terminal repeats (LTR). The reporter construct contained six copies of the ecdysone response element (EcRE) binding site placed upstream of LacZ and flanked on both sides with LTR sequences (6XEcRE).
Dilution cloning was used to isolate individual clones. Clones were selected using 450 ug/mL G418 and 100 ng/mL puromycin. Individual clones were evaluated based on their response in the presence and absence of test ligands. Clone Z3 was selected for screening and SAR purposes.
Human 293 kidney cells stably transformed with CVBE and 6XEcRE lack were maintained in Minimum Essential Medium (Mediates, 10-010-CV) containing 10% FBS (Life Technologies, 26140-087), […] G418 (Mediates, 30-234-CR), and […] (Sigma, P-7255), at 37° C. in an atmosphere containing 5% CO2 and were subculture when they reached 75% confluence.
Z3 cells were seeded into 96-well tissue culture plates at a concentration of 2.5×10^3 cells per well and incubated at 37° C. in 5% CO2 for twenty-four hours. Stock solutions of ligands were prepared in DMSO. Ligand stock solutions were diluted 100 fold in media and 50 μL of this diluted ligand solution (33 μM) was added to cells. The final concentration of DMSO was maintained at […] in both controls and treatments.
Reporter gene expression was evaluated 48 hours after treatment of cells, β-galactosidase activity was measured using Gal Screen™ bioluminescent reporter gene assay system from Tropix (GSY1000).
Flanking both constructs are long terminal repeats, G418 and puromycin are selectable markers, CMV is the cytomegalovirus promoter, VBE is coding sequence for amino acids 26-546 from Bombyx mori EcR inserted downstream of the VP16 transactivation domain, 6×EcRE is six copies of the ecdysone response element, lacZ encodes for the reporter enzyme β-galactosidase. Suhr, S. T., Gil, E. B., Senut M. C., Gage, F. H. (1998) Proc. Natl. Acad. Sci. USA 95, 7999-804. Swevers, L., Drevet, J. R., Lunke, M. D., Iatrou, K. (1995) Insect Biochem. Mol. Biol. 25, 857-866.

[2] = target: T2, GAL4 DBD-CfEcR(DEF)/VP16AD-MmRXRE (Choristoneura fumiferana, UniProt O77240); experiment: cell-based
T2 sequence (O77240 1-513): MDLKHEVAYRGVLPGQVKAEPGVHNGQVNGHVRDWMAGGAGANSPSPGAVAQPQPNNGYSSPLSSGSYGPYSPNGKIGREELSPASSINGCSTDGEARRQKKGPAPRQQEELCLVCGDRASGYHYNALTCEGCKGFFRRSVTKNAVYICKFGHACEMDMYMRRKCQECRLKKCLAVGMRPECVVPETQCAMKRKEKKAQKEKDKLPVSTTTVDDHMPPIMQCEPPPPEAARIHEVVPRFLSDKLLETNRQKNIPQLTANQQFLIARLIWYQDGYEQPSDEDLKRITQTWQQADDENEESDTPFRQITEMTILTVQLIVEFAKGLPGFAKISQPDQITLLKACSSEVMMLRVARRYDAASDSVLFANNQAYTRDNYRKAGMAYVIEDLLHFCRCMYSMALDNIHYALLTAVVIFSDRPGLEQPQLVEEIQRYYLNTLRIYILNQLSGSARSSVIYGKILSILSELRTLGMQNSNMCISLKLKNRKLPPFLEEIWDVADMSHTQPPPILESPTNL
Description: GAL4 DBD-CfEcR(DEF)/VP16AD-MmRXRE: The wild-type D, E, and F domains from spruce budworm Choristoneura fumiferana EcR (“CfEcR-DEF”; SEQ ID NO: 1) were fused to a GAL4 DNA binding domain (“Gal4 DBD1-147”; nucleotides 31 to 471 of SEQ ID NO: 2) and placed under the control of the SV40e promoter of pM vector (PT3119-5, Clontech, Palo Alto, Calif.). The D and E domains from Mus Musculus RXR (“MmRXR-DE”; SEQ ID NO: 10) were fused to the transactivation domain from VP16 (“VP16AD”; SEQ ID NO: 5) and placed under the control of the SV40e promoter of the pVP16 vector (PT3127-5, Clontech, Palo Alto, Calif.).
CHO cells were transienty transfected with transcription cassettes for GAL4 DBD-CfEcR(DEF) and for VP16AD-MmRXRE controlled by SV40e promoters. Stably transfected cells were selected using Hygromycin. Individually isolated CHO cell clones were transiently transfected with a GAL4 RE-luciferase reporter (pMR-Luc, Stratagene, La Jolla, Calif.). The 13B3 clone was selected using Zeocin.
Cells were trypsinized and diluted to a concentration of 2.5×10^4 cells mL. 100 μL of cell suspension was placed in each well of a 96 well plate and incubated at 37° C. under 5% CO2 for 24 h. Ligand stock solutions were prepared in DMSO and diluted 300 fold for all treatments. Dose response testing consisted of 8 concentrations ranging from 33 μM to 0.01 μM.
Luciferase reporter gene expression was measured 48 h after cell treatment using Bright-Glo™ Luciferase Assay System from Promega (E2650). Luminescence was detected at room temperature using a Dynex MLX microtiter plate luminometer.
Fold inductions were calculated from single dose testing by dividing relative light units (RLU) in ligand treated cells by RLU in DMSO treated cells. BC50s were calculated from dose response data using a three-parameter logistic model.

In the case of `Cc1ccc(C(=O)NC(C(=O)c2ccccc2)C(C)(C)C)cc1` (stereo not shown) [Example 96], the “Fold Induction Average, Z3 Assay (33 μM)” value [1] is reported as 1 and the “Fold Induction Average, 13B3 Assay (33 μM)” value [2] is reported as 0.
`COc1cccc(C(=O)NC2(C(=O)c3ccc4c(c3)OCO4)CCCC2)c1C` [Example 43] was tested, and the “Fold Induction Average, Z3 Assay (33 μM)” value [1] was 3 and the “Fold Induction Average, 13B3 Assay (33 μM)” value [2] was 2.
`COc1ccccc1C(=O)NC(C)(C)C(=O)c1cc(C)cc(C)c1` [Example 119] was tested, and the “Fold Induction Average, Z3 Assay (33 μM)” value [1] was 1 and the “Fold Induction Average, 13B3 Assay (33 μM)” value [2] was 0.
`COc1ccccc1C(=O)NC(C)(C)C(=O)c1cccc(C)c1` [Example 116] was tested, and the “Fold Induction Average, Z3 Assay (33 μM)” value [1] was 1 and the “Fold Induction Average, 13B3 Assay (33 μM)” value [2] was 4.
In the case of `COc1cccc(C(=O)NC(C)(CC(C)C)C(=O)c2ccc(F)c(C)c2)c1C` (stereo not shown) [Example 54], the “Fold Induction Average, Z3 Assay (33 μM)” value [1] is reported as 41 and the “Fold Induction Average, 13B3 Assay (33 μM)” value [2] is reported as 0.
For `COc1cccc(C(=O)NC2(C(=O)c3ccccc3C)CC2)c1C` [Example 101], the “Fold Induction Average, Z3 Assay (33 μM)” value [1] was 2 and the “Fold Induction Average, 13B3 Assay (33 μM)” value [2] was 2.
With `COc1cccc(C(=O)NC2(C(=O)c3ccc(F)c(C)c3)CC2)c1C` [Example 19] the “Fold Induction Average, Z3 Assay (33 μM)” value [1] was 6 and the “Fold Induction Average, 13B3 Assay (33 μM)” value [2] was 0.
`CC(=O)NC(C(=O)c1ccccc1)c1ccccc1` (stereo not shown) [Example 94] was tested, and the “Fold Induction Average, Z3 Assay (33 μM)” value [1] was 1 and the “Fold Induction Average, 13B3 Assay (33 μM)” value [2] was 1.
For `COc1cccc(C(=O)NC2(C(=O)c3ccc(C)cc3)CC2)c1C` [Example 24], the “Fold Induction Average, Z3 Assay (33 μM)” value [1] was 11 and the “Fold Induction Average, 13B3 Assay (33 μM)” value [2] was 87.
In the case of `CCC(CC)(NC(=O)c1cccc(OC)c1C)C(=O)c1ccc2c(c1)OCO2` [Example 59], the “Fold Induction Average, Z3 Assay (33 μM)” value [1] is reported as 2 and the “Fold Induction Average, 13B3 Assay (33 μM)” value [2] is reported as 0.
In the case of `COc1cccc(C(=O)NC(C)(Cc2ccccc2)C(=O)c2ccc(C)cc2)c1C` (stereo not shown) [Example 16], the “Fold Induction Average, Z3 Assay (33 μM)” value [1] is reported as 10 and the “Fold Induction Average, 13B3 Assay (33 μM)” value [2] is reported as 0.
